The target in one data set is BRD4 BD1 (Homo sapiens (Human), UniProt O60885). Description: NanoBRET bromodomain assay, NanoLuc-BRD4-BD1 fusion in HEK293 cells. The data set is classed as cell-based. The conditions noted are these: top concentration 10 μM. On the technique in general: Bioluminescence resonance energy transfer reports proximity on the nanometre scale.
The nature of data set [1]: Plasma stability assay, rat plasma. The data set is classed as in vitro ADME. Conditions: Method 2 (10 μM). As to the method: From stock solution of compound in 10 mM DMSO, a working solution of 1 mM is prepared by diluting the compound in DMSO. To 398 μL of plasma pre-warmed at 37° C. for 15 minutes), 2 μL of working solution of compound is added, resulting in a final concentration of 5 μM (0.5% DMSO) for the compound. The sample is then incubated at 37° C. Aliquot is withdrawn at specified time-points (0, 15, 30, 60 and 120 mins). The reaction is stopped by addition of 450 μL cold acetonitrile containing internal standard (IS). […] Aliquots of the supernatant is analysed using LC-MS/MS. The percent remaining of the compound at each time point is calculated with respect to the control sample (0 min time-point).
A working solution of compound (500 μM) is prepared in DMSO (100%). To 735 μL of plasma, 15 μL of working solution of compound is added—resulting in a final concentration of 10 μM (2% DMSO) for the compound. The sample is then incubated at 37° C. Aliquot is withdrawn at time-points—0, 15, 30, 60, 90 and 120 mins. The reaction is stopped by using chilled acetonitrile containing internal standard (IS). The samples are centrifuged and the supernatants analyzed using LC-MS/MS. The percent remaining of the compound at each time point is calculated with respect to the control sample (0 min time-point).

Data set [2] can be described thus: Intrinsic clearance in liver microsomes, rat. In kind it is in vitro ADME. The conditions noted are these: rat, liver microsomes, pH 7.4, rat liver microsomes, Method 2; read-out: Half-Life (T1/2) (min), Rat. As to the method:
From stock solution of compound on 10 mM DMSO, a working solution of 0.1 mM is prepared by diluting the compound in DMSO. 6.25 μL of a 20 mg/mL solution of microsomes in PBS pH 7.4 buffer is added to 216.25 μL PBS pH 7.4 buffer (final microsome concentration—0.5 mg/mL). 25 μL of 10 mM solution of NADPH in PBS pH 7.4 buffer is added to the incubations (final NADPH concentration—1 mM). The mixture is pre-warmed to 37° C. for 10 minutes. 2.5 μL of test compound working solution is added (final compound concentration—1 μM with 1% DMSO). Aliquots of 30 μL are taken from the reaction solution at 0.5, 5, 15, 30 and 60 minutes. The reaction was stopped by the addition of 5 volumes of cold acetonitrile with IS (100 nM alprazolam, 200 nM caffeine and 100 nM tolbutamide). Samples were centrifuged at 3, 220 g for 40 minutes. Aliquots of 100 μL of the supernatant are mixed with 100 μL of ultra-pure H2O and used for LC-MS/MS analysis. The percent compound remaining at each time point is calculated with respect to that of the 0.5 min sample. The data are analysed to calculate half-life. Control experiments are run without NADPH and blank samples are prepared using DMSO without the test compound.
A 50 mM stock solution (in DMSO) is prepared for the compound. From the stock solution, a working solution of 0.5 mM is prepared by diluting the compound in DMSO. This concentration of working solution is prepared considering a final concentration of 1 uM with 0.1% DMSO. The compound (1 μL of working solution) is spiked in PBS with pH 7.4 ([…]) at a concentration of 1 μM. Subsequently, 110 μL of 10 mM NADPH is added (as a co-factor). The sample is incubated at 37° C. for 15 min. Following this, pre-warmed liver microsomes (27.5 μL; final protein conc. 0.5 mg/mL) are added. The samples are then incubated at 37° C. Aliquots of samples are withdrawn at 0, 5, 15, 30, 45 and 60 min. The reaction is stopped by using chilled acetonitrile containing internal standard. The samples are centrifuged, and the supernatants analysed by LC-MS/MS. The percent compound remaining at each time point is calculated with respect to that of the 0 min sample. The data are then analysed to calculate half-life and intrinsic clearance (CLint). Control experiments are run without NADPH and blank samples are prepared using DMSO without the test compound.
A general note: Liver microsomes are a subcellular fraction often used to study metabolism.

In another data set the target is BRD4 BD2 (Homo sapiens (Human), UniProt O60885). Description: NanoBRET bromodomain assay, NanoLuc-BRD4-BD2 fusion in HEK293 cells.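 On all read-outs here: tracer displacement BRET read in transfected cells after 2 h compound exposure at 37 °C, signal in milliBRET units corrected against no-tracer background wells.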 The conditions noted are these: for IC50: BRD4 BD2 (IC50), NanoBRET, HEK293 cells, top concentration 10 μM; for Fold selectivity: IC50 for BRD4 BD1 divided by IC50 for BRD4 BD2, qualitative if an IC50 is at the upper limit.

Structures are written as SMILES.

Procedure for BRD4 BD1: HEK293 cells were transfected using NanoLuc-BRD4-BD1 or NanoLuc-BRD4-BD2 fusion vectors and incubated at 37° C. in an atmosphere of 5% CO2 for 20-24 hours. The transfected cells were then dispensed into 96-well plates using 90 μl cell suspension per well containing 2×10^5 cells/mL in Opti-MEM and 1× final concentration of tracer. 90 μL per well of cell suspension without tracer was also dispensed into at least 3 wells as “No tracer control samples” for background correction. Serially diluted test compounds were prepared at 1000× concentration in DMSO and further diluted to 10× concentration in Opti-MEM. […] Plates were then incubated at 37° C. +5% 002 incubator for 2 hours. […] Donor emission (450 nm) and acceptor emission (610 nm) were measured using PHERAstar (BMG LabTech). For data analysis, the raw BRET ratio was generated and converted to milliBRET units with background correction using the formula: [(Acceptorsample/Donorsample−(Acceptorno tracer control/Donorno tracer control)]×1000. The mBU data was plotted as a function of compound concentration and IC50s for BRET assay were determined by nonlinear regression analysis of concentration response curves using the Collaborative Drug Discovery Vault software. The fold-selectivity was calculated by dividing the IC50 for BRD4 BD1 by the IC50 for BRD4 BD2.

The IC50 is the concentration needed to halve the response being measured. Low readings indicate greater potency, high ones weaker potency. For the molecule `CNC(=O)c1[nH]c(C(=O)NC2COC2)cc1OC(C)c1ccccc1F` (single isomer, unassigned) [Example 47, 3-(1-(2-fluorophenyl)ethoxy)-N^2-methyl-N^5-(oxetan-3-yl)-1H-pyrrole-2,5-dicarboxamide], on BRD4 BD1, the IC50 was ≥ 10000 nM. Further, the “Plasma Stability (% remaining at 120 minutes), Rat” value in data set [1] turned out to be 76%. For the same molecule, the half-life at 1 μM in data set [2] is > 60 min. For the same molecule, at BRD4 BD2, the IC50 fell in the range of 50 to 200 nM; the Fold selectivity result is “XX (Fold >50 and ≤200)”.

`CNC(=O)c1[nH]c(C(=O)NC(C)C)cc1O[C@@H](C)c1ccc(Cl)cc1` [Example 61, (S)-3-(1-(4-chlorophenyl)ethoxy)-N^5-isopropyl-N^2-methyl-1H-pyrrole-2,5-dicarboxamide]: the IC50 against BRD4 BD1 is ≥ 10000 nM. Moreover, the “Plasma Stability (% remaining at 120 minutes), Rat” value in data set [1] is on record as 81%. Besides, the half-life at 1 μM in data set [2] is > 60 min. Besides, at BRD4 BD2, the IC50 was in the range of 50 to 200 nM; the Fold selectivity result was “XX (Fold >50 and ≤200)”.

On to `CCNC(=O)c1cc(OC(C)c2ccc(I)cc2)c(C(=O)NC)[nH]1` (single isomer, unassigned) [Example 51, N^5-ethyl-3-(1-(4-iodophenyl)ethoxy)-N^2-methyl-1H-pyrrole-2,5-dicarboxamide], for which the IC50 was ≥ 10000 nM at BRD4 BD1 and < 50 nM against BRD4 BD2. In addition, the “Plasma Stability (% remaining at 120 minutes), Rat” value in data set [1] amounted to 93%. For the same molecule, the half-life at 1 μM in data set [2] is > 60 min. Besides, on BRD4 BD2, the Fold selectivity entry is recorded as “XXX (Fold >200)”.

As to `CNC(=O)c1[nH]c(-c2ncc(C)[nH]2)cc1O[C@@H](C)c1ccccc1F` [Example 68, (S)-3-(1-(2-fluorophenyl)ethoxy)-N-methyl-5-(5-methyl-1H-imidazol-2-yl)-1H-pyrrole-2-carboxamide], on BRD4 BD1, the IC50 was ≥ 10000 nM. Further, the “Plasma Stability (% remaining at 120 minutes), Rat” value in data set [1] is given as 75%. Moreover, the half-life at 1 μM in data set [2] came to 23 min. Further, at BRD4 BD2, the IC50 was < 50 nM and the Fold selectivity entry is recorded as “XXX (Fold >200)”.

Regarding `CCNC(=O)c1cc(OC(c2ccccc2)c2ccccc2)c(C(=O)NC)[nH]1` [Example 53, 3-(benzhydryloxy)-N^5-ethyl-N^2-methyl-1H-pyrrole-2,5-dicarboxamide], the IC50 at BRD4 BD1 is ≥ 10000 nM; against BRD4 BD2 it was 50 to 200 nM. Moreover, in data set [1], the “Plasma Stability (% remaining at 120 minutes), Rat” value is listed as 91%. In addition, the half-life at 1 μM in data set [2] was > 60 min. Besides, the Fold selectivity result at BRD4 BD2 is “XX (Fold >50 and ≤200)”.

Take `CCNC(=O)c1cc(OC(C)c2ccc(Br)cc2)c(C(=O)NC)[nH]1` (single isomer, unassigned) [Example 49, 3-(1-(4-bromophenyl)ethoxy)-N^5-ethyl-N^2-methyl-1H-pyrrole-2,5-dicarboxamide]: on BRD4 BD1, the IC50 is ≥ 10000 nM. Moreover, the “Plasma Stability (% remaining at 120 minutes), Rat” value in data set [1] stood at 90%. In data set [2], the half-life at 1 μM is > 60 min. For the same molecule, at BRD4 BD2, the IC50 was < 50 nM and the Fold selectivity result is reported as “XXX (Fold >200)”.

For `CNC(=O)c1[nH]c(-c2ncc(C)[nH]2)cc1O[C@@H](C)c1ccc(Cl)cc1` [Example 69, (S)-3-(1-(4-chlorophenyl)ethoxy)-N-methyl-5-(5-methyl-1H-imidazol-2-yl)-1H-pyrrole-2-carboxamide], the figures for the IC50 at BRD4 BD1 and at BRD4 BD2 were ≥ 10000 nM and < 50 nM, respectively. In addition, the “Plasma Stability (% remaining at 120 minutes), Rat” value in data set [1] amounted to 83%. Also, the half-life at 1 μM in data set [2] was 21 min. The Fold selectivity entry on BRD4 BD2 was “XXX (Fold >200)”.

Source of the values: patent US20250263370A1 (Tay Therapeutics Limited, priority 2022, published 2025).
